# Assays:
# [1] = Plasma concentration in Sprague-Dawley rat spinal nerve ligation model at 100 mg/kg administered as single dose via oral gavage measured after 1 hr by LC-MS/MS analysis; format: ADME, organism-based
# Rattus norvegicus = experiment: Unbound AUC (0 to last) in Sprague-Dawley rat at 10 mg/kg administered as single dose via oral gavage by LC-MS/MS analysis; format: ADME, organism-based; conditions: in vivo
# [2] = Plasma concentration in Sprague-Dawley rat spinal nerve ligation model at 30 mg/kg administered as single dose via oral gavage measured after 1 hr by LC-MS/MS analysis; format: ADME, organism-based
# [3] = Plasma concentration in Sprague-Dawley rat spinal nerve ligation model at 100 mg/kg administered as single dose via oral gavage measured after 2 hrs by LC-MS/MS analysis; format: ADME, organism-based
# [4] = Intrinsic clearance in human liver microsomes at 1 uM after 60 mins in presence of NADPH by LC-MS/MS analysis; format: ADME, microsome; conditions: read-out: CLH
# [5] = Unbound plasma concentration in Sprague-Dawley rat spinal nerve ligation model at 30 mg/kg administered as single dose via oral gavage measured after 2 hrs by LC-MS/MS analysis; format: ADME, organism-based; conditions: in vivo
# [6] = Unbound plasma concentration in Sprague-Dawley rat spinal nerve ligation model at 30 mg/kg administered as single dose via oral gavage measured after 1 hr by LC-MS/MS analysis; format: ADME, organism-based; conditions: in vivo
# [7] = Fraction unbound in rat plasma at 2 uM after 4 hrs by LC-MS/MS analysis; format: ADME, cell-free
# Cytochrome P450 2C9 = Cytochrome P450 2C9 (Homo sapiens, UniProt P11712)
# Cytochrome P450 2C9, sequence (P11712 whole entry): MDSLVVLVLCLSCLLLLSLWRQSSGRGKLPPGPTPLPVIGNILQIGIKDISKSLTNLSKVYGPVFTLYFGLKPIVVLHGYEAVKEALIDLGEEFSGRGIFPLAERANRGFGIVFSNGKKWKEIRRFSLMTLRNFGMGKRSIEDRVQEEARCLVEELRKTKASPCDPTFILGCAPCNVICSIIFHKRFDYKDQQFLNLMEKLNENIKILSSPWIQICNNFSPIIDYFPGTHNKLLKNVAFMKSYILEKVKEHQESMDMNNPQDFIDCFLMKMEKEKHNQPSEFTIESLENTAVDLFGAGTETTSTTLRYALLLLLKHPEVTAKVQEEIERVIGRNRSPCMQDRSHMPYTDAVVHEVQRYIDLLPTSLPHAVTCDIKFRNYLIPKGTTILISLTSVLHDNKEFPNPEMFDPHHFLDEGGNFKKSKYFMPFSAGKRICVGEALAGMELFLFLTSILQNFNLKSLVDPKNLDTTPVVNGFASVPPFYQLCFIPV
# [8] = Oral bioavailability in Sprague-Dawley rat at 10 mg/kg administered as single dose via gavage by LC-MS/MS analysis; format: ADME, organism-based; conditions: in vivo
# [9] = Fraction unbound in human plasma at 2 uM after 4 hrs by LC-MS/MS analysis; format: ADME, cell-free
# [10] = Plasma concentration in Sprague-Dawley rat spinal nerve ligation model at 30 mg/kg administered as single dose via oral gavage measured after 2 hrs by LC-MS/MS analysis; format: ADME, organism-based
# Cytochrome P450 2D6 = Cytochrome P450 2D6 (Homo sapiens, UniProt P10635)
# Cytochrome P450 2D6, sequence (P10635 whole entry): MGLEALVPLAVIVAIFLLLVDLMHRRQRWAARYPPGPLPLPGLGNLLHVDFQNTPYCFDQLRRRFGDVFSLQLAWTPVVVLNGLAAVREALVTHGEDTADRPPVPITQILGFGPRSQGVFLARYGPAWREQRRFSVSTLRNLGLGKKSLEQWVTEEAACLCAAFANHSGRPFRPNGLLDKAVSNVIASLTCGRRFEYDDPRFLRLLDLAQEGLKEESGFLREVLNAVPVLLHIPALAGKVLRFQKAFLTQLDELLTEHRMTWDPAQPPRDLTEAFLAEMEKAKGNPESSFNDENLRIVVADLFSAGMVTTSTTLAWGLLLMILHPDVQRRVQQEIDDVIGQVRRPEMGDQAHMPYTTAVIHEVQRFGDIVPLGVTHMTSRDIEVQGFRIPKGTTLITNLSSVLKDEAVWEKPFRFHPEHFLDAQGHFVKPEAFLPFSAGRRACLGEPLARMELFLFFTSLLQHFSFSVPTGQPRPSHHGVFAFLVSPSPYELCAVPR
# [11] = Drug metabolism in po dosed rat plasma assessed as deethylation by measuring 4-(((1R,6R)-6-amino-2-(4-fluorophenyl)cyclohex-2-enyl)methoxy)-5-chloro-2-fluoro-N-(thiazol-4-yl)benzenesulfonamide metabolite formation; format: ADME, organism-based; conditions: in vivo
# [12] = target: Voltage-gated inwardly rectifying potassium channel KCNH2 (Homo sapiens, UniProt Q12809)
# Voltage-gated inwardly rectifying potassium channel KCNH2, sequence (Q12809 whole entry): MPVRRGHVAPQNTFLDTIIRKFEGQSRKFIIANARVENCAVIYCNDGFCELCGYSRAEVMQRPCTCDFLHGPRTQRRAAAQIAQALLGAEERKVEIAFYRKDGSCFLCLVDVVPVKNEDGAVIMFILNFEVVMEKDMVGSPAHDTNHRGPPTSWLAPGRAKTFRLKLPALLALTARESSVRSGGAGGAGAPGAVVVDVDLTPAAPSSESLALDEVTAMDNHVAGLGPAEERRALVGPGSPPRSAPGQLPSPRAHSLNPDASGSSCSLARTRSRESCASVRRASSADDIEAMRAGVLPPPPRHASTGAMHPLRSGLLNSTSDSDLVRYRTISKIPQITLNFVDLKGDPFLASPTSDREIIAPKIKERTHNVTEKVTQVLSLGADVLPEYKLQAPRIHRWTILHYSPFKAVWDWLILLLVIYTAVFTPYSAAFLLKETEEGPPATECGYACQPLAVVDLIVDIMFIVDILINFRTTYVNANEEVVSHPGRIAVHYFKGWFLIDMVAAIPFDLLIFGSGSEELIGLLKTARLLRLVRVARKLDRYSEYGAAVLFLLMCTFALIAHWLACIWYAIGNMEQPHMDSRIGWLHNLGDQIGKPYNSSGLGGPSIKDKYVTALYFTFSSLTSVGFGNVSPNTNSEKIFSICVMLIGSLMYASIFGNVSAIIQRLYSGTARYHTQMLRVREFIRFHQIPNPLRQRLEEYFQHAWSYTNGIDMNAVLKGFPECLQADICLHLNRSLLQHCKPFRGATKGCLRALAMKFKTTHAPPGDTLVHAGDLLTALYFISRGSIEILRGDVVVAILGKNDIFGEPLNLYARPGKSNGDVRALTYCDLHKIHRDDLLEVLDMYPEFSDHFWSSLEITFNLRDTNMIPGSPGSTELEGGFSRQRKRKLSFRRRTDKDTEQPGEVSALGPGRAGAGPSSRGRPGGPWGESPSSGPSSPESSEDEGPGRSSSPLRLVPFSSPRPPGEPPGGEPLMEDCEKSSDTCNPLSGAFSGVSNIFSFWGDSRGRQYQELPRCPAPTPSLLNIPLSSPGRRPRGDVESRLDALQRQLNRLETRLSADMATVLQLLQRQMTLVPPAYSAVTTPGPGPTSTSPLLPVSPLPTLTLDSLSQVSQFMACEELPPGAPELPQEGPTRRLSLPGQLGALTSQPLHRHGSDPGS
smiles,measurement,setting,value
CCN[C@@H]1CCC=C(c2ccc(F)cc2)[C@H]1COc1cc(F)c(S(=O)(=O)Nc2cscn2)cc1Cl.Cl,concentration at 1 h,[1],8480 nM
same,fAUClast,Rattus norvegicus,0.106 µM·h
same,concentration at 1 h,[2],2010 nM
same,concentration at 2 h,[3],7500 nM
same,CLint scaled at 1 µM,[4],66.9 mL/min/kg
same,Cp(f),[5],75 nM
same,Cp(f),[6],70 nM
same,"fraction unbound at 4 h, 2 µM",[7],0.035
same,IC50,Cytochrome P450 2C9,5.7 µM
same,bioavailability,[8],37%
same,"fraction unbound at 4 h, 2 µM",[9],0.015
same,concentration at 2 h,[10],2160 nM
same,IC50,Cytochrome P450 2D6,22 µM
same,Drug metabolism,[11],Metabolite_Detected
same,IC50,[12],4.4 µM
